Assay results: ChEMBL document CHEMBL1124295, “Synthesis and oral antiallergic activity of carboxylic acids derived from imidazo[2,1-c][1,4]benzoxazines, imidazo[1,2-a]quinolines, imidazo[1,2-a]quinoxalines, imidazo[1,2-a]quinoxalinones, pyrrolo[1,2-a]quinoxalinones, pyrrolo[2,3-a]quinoxalinones, and imidazo[2,1-b]benzothiazoles” (1988)
Active and inactive are the calls of the source. The rule behind the calls is not given here.

Experiments:
Rattus norvegicus [1] = experiment: Inhibition of the IgE-mediated passive cutaneous anaphylaxis (PCA) reaction in rat after oral administration; Range 4.65-18.7; format: functional
Rattus norvegicus [2] = experiment: Inhibition of the IgE-mediated passive cutaneous anaphylaxis (PCA) reaction in rat after oral administration; Range 0.29-0.4; format: functional
Rattus norvegicus [3] = experiment: Inhibition of the IgE-mediated passive cutaneous anaphylaxis (PCA) reaction in rat after intravenous administration; Range 0.24-0.39; format: functional
Rattus norvegicus [4] = experiment: Inhibition of the IgE-mediated passive cutaneous anaphylaxis (PCA) reaction in rat after intravenous administration; Range 0.058-0.15; format: functional
Rattus norvegicus [5] = experiment: Inhibition of the IgE-mediated passive cutaneous anaphylaxis (PCA) reaction in rat after intravenous administration; NA means inactive at 1 and 10 mg/Kg; format: functional, organism-based
Rattus norvegicus [6] = experiment: Inhibition of the IgE-mediated passive cutaneous anaphylaxis (PCA) reaction in rat after oral administration; Range 0.3-10.04; format: functional
Rattus norvegicus [7] = experiment: Inhibition of the IgE-mediated passive cutaneous anaphylaxis (PCA) reaction in rat after intravenous administration; […]; format: functional
Rattus norvegicus [8] = experiment: Inhibition of the IgE-mediated passive cutaneous anaphylaxis (PCA) reaction in rat after oral administration; Range 1.22-2.52; format: functional
Rattus norvegicus [9] = experiment: Inhibition of the IgE-mediated passive cutaneous anaphylaxis (PCA) reaction in rat after oral administration; Inactive at 1 and 10 mg/kg; format: functional, organism-based; set-up: dose 10 mg/kg
Rattus norvegicus [10] = experiment: Inhibition of the IgE-mediated passive cutaneous anaphylaxis (PCA) reaction in rat after intravenous administration; Range 0.05-0.11; format: functional
Rattus norvegicus [11] = experiment: Inhibition of the IgE-mediated passive cutaneous anaphylaxis (PCA) reaction in rat after oral administration; NA means inactive at 1 and 10 mg/Kg; format: functional, organism-based
Rattus norvegicus [12] = experiment: Inhibition of the IgE-mediated passive cutaneous anaphylaxis (PCA) reaction in rat after intravenous administration; NA means inactive; format: functional, organism-based
Rattus norvegicus [13] = experiment: Inhibition of the IgE-mediated passive cutaneous anaphylaxis (PCA) reaction in rat after oral administration; Inactive at 10 mg/kg; format: functional, organism-based; set-up: dose 10 mg/kg
Rattus norvegicus [14] = experiment: Inhibition of the IgE-mediated passive cutaneous anaphylaxis (PCA) reaction in rat after oral administration; Range 0.74-2.02; format: functional
Rattus norvegicus [15] = experiment: Inhibition of the IgE-mediated passive cutaneous anaphylaxis (PCA) reaction in rat after intravenous administration; Range 1.14-3.89; format: functional
Rattus norvegicus [16] = experiment: Inhibition of the IgE-mediated passive cutaneous anaphylaxis (PCA) reaction in rat after intravenous administration; Range 0.05-0.15; format: functional
Rattus norvegicus [17] = experiment: Inhibition of the IgE-mediated passive cutaneous anaphylaxis (PCA) reaction in rat after intravenous administration; Range 0.91-3.86; format: functional
Rattus norvegicus [18] = experiment: Inhibition of the IgE-mediated passive cutaneous anaphylaxis (PCA) reaction in rat after oral administration; Range 4.38-21.4; format: functional
Rattus norvegicus [19] = experiment: Inhibition of the IgE-mediated passive cutaneous anaphylaxis (PCA) reaction in rat after intravenous administration; Inactive at 1 and 10 mg/kg; format: functional, organism-based; set-up: dose 10 mg/kg
Rattus norvegicus [20] = experiment: Inhibition of the IgE-mediated passive cutaneous anaphylaxis (PCA) reaction in rat after intravenous administration; Range 2.20-3.00; format: functional
Rattus norvegicus [21] = experiment: Inhibition of the IgE-mediated passive cutaneous anaphylaxis (PCA) reaction in rat after intravenous administration; Range 0.20-0.35; format: functional
Rattus norvegicus [22] = experiment: Inhibition of the IgE-mediated passive cutaneous anaphylaxis (PCA) reaction in rat after intravenous administration; Range 0.021-0.03; format: functional
Rattus norvegicus [23] = experiment: Inhibition of the IgE-mediated passive cutaneous anaphylaxis (PCA) reaction in rat after oral administration; Inactive(50% inhibition at 10 mg/kg); format: functional
Rattus norvegicus [24] = experiment: Inhibition of the IgE-mediated passive cutaneous anaphylaxis (PCA) reaction in rat after oral administration; Inactive; format: functional, organism-based
Rattus norvegicus [25] = experiment: Inhibition of the IgE-mediated passive cutaneous anaphylaxis (PCA) reaction in rat after intravenous administration; Range 1.04-1.42; format: functional
Rattus norvegicus [26] = experiment: Inhibition of the IgE-mediated passive cutaneous anaphylaxis (PCA) reaction in rat after oral administration; NA means Inactive; format: functional, organism-based
Rattus norvegicus [27] = experiment: Inhibition of the IgE-mediated passive cutaneous anaphylaxis (PCA) reaction in rat after intravenous administration; Range 0.19-0.59; format: functional
Rattus norvegicus [28] = experiment: Inhibition of the IgE-mediated passive cutaneous anaphylaxis (PCA) reaction in rat after intravenous administration; Range 0.04-0.154; format: functional
Rattus norvegicus [29] = experiment: Inhibition of the IgE-mediated passive cutaneous anaphylaxis (PCA) reaction in rat after intravenous administration; Range 0.057-0.091; format: functional
Rattus norvegicus [30] = experiment: Inhibition of the IgE-mediated passive cutaneous anaphylaxis (PCA) reaction in rat after oral administration; Range 0.54-0.9; format: functional
Rattus norvegicus [31] = experiment: Inhibition of the IgE-mediated passive cutaneous anaphylaxis (PCA) reaction in rat after intravenous administration; Range 2.74-6.94; format: functional

In the case of `CCOC(=O)c1cn2c(cc(Cl)c3ccc(OC)cc32)n1`, the ED50 (Rattus norvegicus [1]) is reported as 8 mg/kg.

Compound `O=C(O)c1cn2c(ccc3ccccc32)n1` has an ED50 (Rattus norvegicus [2]) of 0.34 mg/kg and an ED50 (Rattus norvegicus [3]) of 0.3 mg/kg.

For `CSc1ccc2ccc3nc(C(=O)O)cn3c2c1`, the ED50 (Rattus norvegicus [4]) was 0.095 mg/kg.

With `CCOC(=O)c1c(C(=O)OC)nc2n1-c1ccccc1OC2` the ED50 (Rattus norvegicus [5]) was “inactive”.

`CCOC(=O)c1cn2c(cc(Cl)c3ccc(Cl)cc32)n1` showed an ED50 (Rattus norvegicus [6]) of 1.49 mg/kg.

Compound `O=C(O)c1cc2c(=O)n(C3CCCC3)c3ccccc3n2c1` has an ED50 (Rattus norvegicus [7]) of 0.037 mg/kg and an ED50 (Rattus norvegicus [8]) of 1.96 mg/kg.

With `COc1ccc2ccc3nc(C(N)=O)cn3c2c1` the ED50 (Rattus norvegicus [9]) was “inactive”.

For `CCn1c(=O)c2nc(CO)cn2c2ccccc21`, the ED50 (Rattus norvegicus [10]) was 0.071 mg/kg.

`NC(=O)c1cn2c(ccc3ccccc32)n1` was tested, and the ED50 (Rattus norvegicus [11]) was “inactive”.

With `CCn1c(=O)c2ccccc2n2cc(C(=O)O)nc12` the ED50 (Rattus norvegicus [12]) was “inactive”.

`CCOC(=O)c1cn2c(n1)c(=O)n(Cc1ccccc1)c1ccccc12` was tested, and the ED50 (Rattus norvegicus [13]) was “inactive”.

Compound `CCCn1c(=O)c2nc(C(=O)OCC)cn2c2ccccc21` has an ED50 (Rattus norvegicus [14]) of 1.21 mg/kg.

For `Cc1c(C(=O)O)nc2ccc3ccc(Cl)cc3n12`, the ED50 (Rattus norvegicus [15]) was 1.99 mg/kg.

In the case of `O=C(O)c1cnc2n1-c1ccccc1OC2`, the ED50 (Rattus norvegicus [5]) is reported as “inactive”.

For `O=C(O)c1nc2n(c1CO)-c1ccccc1OC2`, the ED50 (Rattus norvegicus [11]) was “inactive”.

`CCc1ccc2c(Cl)cc3nc(C(=O)O)cn3c2c1` was tested, and the ED50 (Rattus norvegicus [16]) was 0.09 mg/kg.

`O=C(O)c1nc2n(c1C(=O)O)-c1ccccc1OC2` was tested, and the ED50 (Rattus norvegicus [5]) was “inactive”.

Work on `CC1Oc2ccccc2-n2cc(C(=O)O)nc21` (configuration not stated) yielded an ED50 (Rattus norvegicus [17]) of 1.76 mg/kg and an ED50 (Rattus norvegicus [18]) of 8.46 mg/kg.

`CCOC(=O)c1cn2ccccc2n1` was tested, and the ED50 (Rattus norvegicus [19]) was “inactive”.

With `O=C(O)c1cn2c(n1)c(-c1ccccc1)cc1ccccc12` the ED50 (Rattus norvegicus [19]) was “inactive”.

Compound `CS1(=O)=Nc2nc(C(=O)O)cn2-c2ccccc21` (configuration not stated) has an ED50 (Rattus norvegicus [20]) of 2.59 mg/kg.

Compound `O=C(O)c1cn2c(ccc3cc([N+](=O)[O-])ccc32)n1` has an ED50 (Rattus norvegicus [21]) of 0.28 mg/kg.

`CS(=O)(=O)c1ccc2ccc3nc(C(=O)O)cn3c2c1` showed an ED50 (Rattus norvegicus [22]) of 0.028 mg/kg and an inhibition in vivo at 10 mg/kg (Rattus norvegicus [23]) of 50%.

In the case of `O=C(O)Cc1cn2c(n1)COc1ccccc1-2`, the ED50 (Rattus norvegicus [5]) is reported as “inactive”.

With `CCOC(=O)c1cn2c3ccccc3c(=O)n(CC)c2n1` the ED50 (Rattus norvegicus [24]) was “inactive”.

In the case of `c1ccc2c(c1)OCc1nc(CN3CCCCC3)cn1-2`, the ED50 (Rattus norvegicus [5]) is reported as “inactive”.

`O=C(O)c1cn2c(n1)c(O)nc1cc(Cl)c(Cl)cc12` was tested, and the ED50 (Rattus norvegicus [13]) was “inactive”.

In the case of `O=C([O-])c1cc(=O)c2c(OCC(O)COc3cccc4oc(C(=O)[O-])cc(=O)c34)cccc2o1.[Na+].[Na+]` [CROMOLYN SODIUM], the ED50 (Rattus norvegicus [25]) is reported as 1.21 mg/kg and the ED50 (Rattus norvegicus [26]) is reported as “inactive”.

In the case of `O=C(O)c1cc2c(ccc3ccccc32)s1`, the ED50 (Rattus norvegicus [19]) is reported as “inactive”.

Work on `O=C(O)c1cn2c(n1)sc1ccccc12` yielded an ED50 (Rattus norvegicus [27]) of 0.33 mg/kg.

With `O=C(O)c1cn2c(ccc3ccc(C(F)(F)F)cc32)n1` the ED50 (Rattus norvegicus [28]) was 0.07 mg/kg.

With `O=C(O)c1cn2c(cnc3ccccc32)n1` [DAZOQUINAST] the ED50 (Rattus norvegicus [29]) was 0.073 mg/kg and the ED50 (Rattus norvegicus [30]) was 0.13 mg/kg.

With `CCOC(=O)c1cn2c(cnc3cc(Cl)c(Cl)cc32)n1` the ED50 (Rattus norvegicus [11]) was “inactive”.

In the case of `O=C(O)c1nc2ccc3ccccc3n2c1Br`, the ED50 (Rattus norvegicus [31]) is reported as 4.19 mg/kg.

With `COC(=O)c1nc2n(c1C(=O)O)-c1ccccc1OC2` the ED50 (Rattus norvegicus [5]) was “inactive”.

`COC(=O)c1nnn2c1c(=O)oc1ccccc12` showed an inhibition in vivo at 10 mg/kg (Rattus norvegicus [23]) of 50%.
